Experimental data from ChEMBL document CHEMBL5653615 (J Biol Chem, 2013).

Columns and labels:
[1] = target: Protein kinase C beta type (Homo sapiens) (UniProt P05771); assay: Inhibition of human PKCb1 at 500 nM by HotSpot assay relative to control
[2] = target: T1, Serine/threonine-protein kinase A-Raf (Homo sapiens) (UniProt P10398); assay: Inhibition of human ARAF at 1.82 nM by HotSpot assay relative to control
T1 sequence (whole entry): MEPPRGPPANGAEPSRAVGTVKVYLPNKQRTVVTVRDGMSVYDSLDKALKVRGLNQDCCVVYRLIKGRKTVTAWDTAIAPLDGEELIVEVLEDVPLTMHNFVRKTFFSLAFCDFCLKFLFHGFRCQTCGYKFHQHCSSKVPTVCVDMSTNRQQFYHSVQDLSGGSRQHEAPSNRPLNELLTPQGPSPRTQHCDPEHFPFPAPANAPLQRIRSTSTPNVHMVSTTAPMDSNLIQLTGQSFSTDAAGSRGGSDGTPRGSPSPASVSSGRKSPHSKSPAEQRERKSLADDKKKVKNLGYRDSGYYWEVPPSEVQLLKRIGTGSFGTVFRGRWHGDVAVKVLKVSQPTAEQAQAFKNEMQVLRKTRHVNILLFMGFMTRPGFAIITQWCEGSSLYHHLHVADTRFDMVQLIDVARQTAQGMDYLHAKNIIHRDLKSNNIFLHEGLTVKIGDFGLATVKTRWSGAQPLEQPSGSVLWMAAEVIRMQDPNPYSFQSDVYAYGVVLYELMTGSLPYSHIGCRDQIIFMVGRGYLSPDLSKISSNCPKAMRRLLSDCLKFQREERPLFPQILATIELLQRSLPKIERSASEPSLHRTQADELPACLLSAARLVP

[3] = target: G protein-coupled receptor kinase 5 (Homo sapiens) (UniProt P34947); assay: Inhibition of human GRK5 at 1.82 nM by HotSpot assay relative to control
Sequence of G protein-coupled receptor kinase 5 (Homo sapiens) (P34947 whole entry, looked up): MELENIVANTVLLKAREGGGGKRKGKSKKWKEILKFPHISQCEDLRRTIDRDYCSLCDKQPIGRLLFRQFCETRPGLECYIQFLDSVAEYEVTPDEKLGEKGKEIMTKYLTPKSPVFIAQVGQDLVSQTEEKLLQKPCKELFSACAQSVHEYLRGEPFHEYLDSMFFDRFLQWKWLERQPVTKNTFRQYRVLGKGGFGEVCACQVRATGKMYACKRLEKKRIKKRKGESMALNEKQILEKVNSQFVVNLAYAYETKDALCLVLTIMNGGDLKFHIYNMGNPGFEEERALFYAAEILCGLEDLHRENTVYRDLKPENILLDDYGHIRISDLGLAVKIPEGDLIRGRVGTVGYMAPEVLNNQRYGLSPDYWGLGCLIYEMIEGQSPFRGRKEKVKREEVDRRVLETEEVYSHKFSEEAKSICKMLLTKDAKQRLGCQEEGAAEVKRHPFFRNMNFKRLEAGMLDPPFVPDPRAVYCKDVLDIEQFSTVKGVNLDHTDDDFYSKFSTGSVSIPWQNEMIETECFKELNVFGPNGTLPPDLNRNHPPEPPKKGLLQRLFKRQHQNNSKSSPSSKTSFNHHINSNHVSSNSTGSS

[4] = target: G protein-coupled receptor kinase 6 (Homo sapiens) (UniProt P43250); assay: Inhibition of human GRK6 at 1.82 nM by HotSpot assay relative to control
Sequence of G protein-coupled receptor kinase 6 (Homo sapiens) (P43250 whole entry, looked up): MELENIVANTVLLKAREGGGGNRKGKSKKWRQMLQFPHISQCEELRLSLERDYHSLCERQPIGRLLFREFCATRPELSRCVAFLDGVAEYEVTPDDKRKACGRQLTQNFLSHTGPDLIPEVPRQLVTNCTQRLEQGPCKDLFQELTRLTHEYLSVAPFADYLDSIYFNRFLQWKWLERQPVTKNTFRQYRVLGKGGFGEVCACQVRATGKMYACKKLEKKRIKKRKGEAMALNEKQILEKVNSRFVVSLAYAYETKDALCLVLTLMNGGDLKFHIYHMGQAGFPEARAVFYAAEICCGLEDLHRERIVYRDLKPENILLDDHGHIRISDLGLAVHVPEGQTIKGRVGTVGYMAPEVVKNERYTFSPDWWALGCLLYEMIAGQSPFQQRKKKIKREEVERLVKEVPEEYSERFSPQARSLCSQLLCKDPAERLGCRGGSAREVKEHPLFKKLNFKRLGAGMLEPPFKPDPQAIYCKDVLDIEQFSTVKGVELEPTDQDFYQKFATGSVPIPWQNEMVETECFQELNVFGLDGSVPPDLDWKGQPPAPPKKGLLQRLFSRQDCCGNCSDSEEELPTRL

[5] = target: RAF proto-oncogene serine/threonine-protein kinase (Homo sapiens) (UniProt P04049); assay: Inhibition of human RAF1 at 1.82 nM by HotSpot assay relative to control
Sequence of RAF proto-oncogene serine/threonine-protein kinase (Homo sapiens) (P04049 whole entry): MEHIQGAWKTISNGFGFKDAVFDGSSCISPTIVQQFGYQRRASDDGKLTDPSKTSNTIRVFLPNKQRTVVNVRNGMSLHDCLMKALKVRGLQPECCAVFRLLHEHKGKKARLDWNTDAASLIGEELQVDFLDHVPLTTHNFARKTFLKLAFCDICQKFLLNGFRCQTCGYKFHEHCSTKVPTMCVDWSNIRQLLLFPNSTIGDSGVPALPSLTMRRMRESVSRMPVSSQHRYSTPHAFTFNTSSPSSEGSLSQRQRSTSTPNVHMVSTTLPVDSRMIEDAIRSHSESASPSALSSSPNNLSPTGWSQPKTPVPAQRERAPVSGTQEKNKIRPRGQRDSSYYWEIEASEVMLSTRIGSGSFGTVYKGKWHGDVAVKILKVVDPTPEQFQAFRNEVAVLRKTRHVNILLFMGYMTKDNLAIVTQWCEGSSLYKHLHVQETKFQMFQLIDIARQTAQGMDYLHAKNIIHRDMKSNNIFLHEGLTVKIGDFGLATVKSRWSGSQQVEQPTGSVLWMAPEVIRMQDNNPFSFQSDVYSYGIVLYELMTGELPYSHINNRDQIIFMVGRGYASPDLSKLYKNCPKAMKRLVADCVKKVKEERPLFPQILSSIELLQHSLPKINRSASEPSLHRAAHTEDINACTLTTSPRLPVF

[6] = target: CDK6/cyclin D3 (Homo sapiens) (UniProt P30281+Q00534); assay: Inhibition of human CDK6/cyclin D3 at 18.6 nM by HotSpot assay relative to control; assay type: protein-complex assay
[7] = target: T2, Protein kinase C zeta type (Homo sapiens) (UniProt Q05513); assay: Inhibition of human PKCzeta at 18.6 nM by HotSpot assay relative to control
T2 sequence (whole entry): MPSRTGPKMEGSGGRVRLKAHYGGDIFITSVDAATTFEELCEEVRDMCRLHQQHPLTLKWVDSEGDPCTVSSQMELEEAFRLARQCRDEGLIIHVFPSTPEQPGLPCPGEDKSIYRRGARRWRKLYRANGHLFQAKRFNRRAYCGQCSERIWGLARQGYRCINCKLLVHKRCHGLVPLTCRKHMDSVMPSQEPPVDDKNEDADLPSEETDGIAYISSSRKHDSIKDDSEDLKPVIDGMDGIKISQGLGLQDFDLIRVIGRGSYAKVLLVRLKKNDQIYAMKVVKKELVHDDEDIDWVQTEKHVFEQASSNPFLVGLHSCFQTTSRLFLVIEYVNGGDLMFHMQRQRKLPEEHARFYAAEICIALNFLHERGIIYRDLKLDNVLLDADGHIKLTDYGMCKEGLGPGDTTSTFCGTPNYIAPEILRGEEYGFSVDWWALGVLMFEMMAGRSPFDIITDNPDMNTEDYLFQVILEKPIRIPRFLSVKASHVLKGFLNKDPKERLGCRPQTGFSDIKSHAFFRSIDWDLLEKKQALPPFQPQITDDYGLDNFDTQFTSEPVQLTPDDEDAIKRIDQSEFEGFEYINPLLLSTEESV

[8] = target: T3, cAMP-dependent protein kinase catalytic subunit PRKX (Homo sapiens) (UniProt P51817); assay: Inhibition of human PRKX at 18.6 nM by HotSpot assay relative to control
T3 sequence (whole entry): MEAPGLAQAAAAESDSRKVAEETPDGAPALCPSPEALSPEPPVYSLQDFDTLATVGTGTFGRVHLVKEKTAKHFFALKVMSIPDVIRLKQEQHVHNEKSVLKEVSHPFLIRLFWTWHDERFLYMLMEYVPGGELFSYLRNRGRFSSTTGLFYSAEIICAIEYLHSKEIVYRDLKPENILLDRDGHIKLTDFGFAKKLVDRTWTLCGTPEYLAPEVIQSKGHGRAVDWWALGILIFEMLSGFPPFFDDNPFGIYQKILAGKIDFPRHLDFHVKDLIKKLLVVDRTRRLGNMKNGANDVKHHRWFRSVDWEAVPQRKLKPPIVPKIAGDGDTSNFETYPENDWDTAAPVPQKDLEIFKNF

[9] = target: T4, Tyrosine-protein kinase receptor TYRO3 (Homo sapiens) (UniProt Q06418); assay: Inhibition of human SKY at 18.6 nM by HotSpot assay relative to control
T4 sequence (whole entry): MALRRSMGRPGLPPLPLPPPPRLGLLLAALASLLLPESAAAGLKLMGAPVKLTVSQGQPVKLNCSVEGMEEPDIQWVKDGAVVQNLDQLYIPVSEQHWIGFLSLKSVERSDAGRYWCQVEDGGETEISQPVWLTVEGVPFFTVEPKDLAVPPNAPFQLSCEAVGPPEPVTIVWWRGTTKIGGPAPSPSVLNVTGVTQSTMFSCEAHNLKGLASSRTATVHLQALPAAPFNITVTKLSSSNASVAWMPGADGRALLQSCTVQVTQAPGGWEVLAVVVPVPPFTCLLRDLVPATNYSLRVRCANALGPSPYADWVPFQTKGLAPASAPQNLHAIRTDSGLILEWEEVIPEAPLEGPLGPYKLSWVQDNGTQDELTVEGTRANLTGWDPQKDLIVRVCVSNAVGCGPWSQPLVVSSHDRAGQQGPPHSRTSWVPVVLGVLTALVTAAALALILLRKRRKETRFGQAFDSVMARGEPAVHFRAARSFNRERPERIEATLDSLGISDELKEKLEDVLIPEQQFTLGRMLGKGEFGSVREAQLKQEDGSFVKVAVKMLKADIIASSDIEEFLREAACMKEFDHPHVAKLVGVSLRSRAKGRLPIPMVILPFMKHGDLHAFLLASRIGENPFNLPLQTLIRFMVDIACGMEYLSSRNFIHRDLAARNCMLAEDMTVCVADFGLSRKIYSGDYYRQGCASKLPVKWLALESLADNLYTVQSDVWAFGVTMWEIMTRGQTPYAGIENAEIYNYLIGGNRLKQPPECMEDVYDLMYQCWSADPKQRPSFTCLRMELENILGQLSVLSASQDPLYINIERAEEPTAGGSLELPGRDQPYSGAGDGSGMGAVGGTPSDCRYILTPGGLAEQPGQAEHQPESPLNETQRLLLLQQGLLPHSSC

Sequence of Protein kinase C beta type (Homo sapiens) (P05771 2-671 limits assumed): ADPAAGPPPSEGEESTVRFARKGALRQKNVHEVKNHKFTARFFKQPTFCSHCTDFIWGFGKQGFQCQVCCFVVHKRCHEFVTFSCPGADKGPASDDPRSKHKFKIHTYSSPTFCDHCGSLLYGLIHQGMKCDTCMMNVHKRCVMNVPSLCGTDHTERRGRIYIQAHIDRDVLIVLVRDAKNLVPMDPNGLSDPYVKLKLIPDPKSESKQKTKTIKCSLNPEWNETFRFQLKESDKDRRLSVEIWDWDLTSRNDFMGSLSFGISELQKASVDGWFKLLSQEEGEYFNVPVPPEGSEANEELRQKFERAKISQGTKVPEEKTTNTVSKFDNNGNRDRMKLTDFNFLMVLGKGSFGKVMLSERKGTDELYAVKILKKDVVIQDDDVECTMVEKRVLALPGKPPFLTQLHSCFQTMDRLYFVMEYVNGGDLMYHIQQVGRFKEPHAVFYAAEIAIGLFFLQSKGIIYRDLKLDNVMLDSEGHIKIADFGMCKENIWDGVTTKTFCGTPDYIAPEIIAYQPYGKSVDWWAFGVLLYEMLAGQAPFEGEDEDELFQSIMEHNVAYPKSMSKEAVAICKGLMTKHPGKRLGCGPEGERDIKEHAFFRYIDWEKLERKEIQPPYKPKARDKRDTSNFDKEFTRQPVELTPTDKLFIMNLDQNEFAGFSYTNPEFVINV

SMILES: Nc1n[nH]c2nnc(-c3c(-c4ccccc4)nn4ccccc34)cc12
- inhibition [1]: 3.54%

SMILES: C[C@@]1(C(=O)Nc2ccc(F)nc2)CCCN1c1nc(Nc2cc(C3CC3)n[nH]2)c2cccn2n1
- inhibition [2]: 5.85%
- inhibition [3]: 1.88%
- inhibition [4]: 2.92%
- inhibition [5]: -9.08%

SMILES: C[C@]1(O)C[C@@H](c2nc(-c3ccc4ccc(-c5ccccc5)nc4c3)c3c(N)nccn32)C1
- inhibition [6]: -9.8%
- inhibition [7]: -2.9%
- inhibition [8]: -0.35%
- inhibition [9]: 1.42%
